Source: PubChem BioAssay (NCI)
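Briefly, cells in 96-well plates were exposed to five compound concentrations for 48 h, and endpoints were estimated by linear interpolation. GI50: concentration for 50% inhibition of growth. TGI: total growth inhibition.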

Legend:
Test in all cases: NCI-60 cell line screen, 48 h
MCF7 breast = tested on: MCF7 breast
HCC-2998 colon = tested on: HCC-2998 colon
SR leukemia = tested on: SR leukemia
T-47D breast = tested on: T-47D breast
SK-MEL-28 melanoma = tested on: SK-MEL-28 melanoma
A498 renal = tested on: A498 renal
NCI/ADR-RES ovarian = tested on: NCI/ADR-RES ovarian
A549 NSCLC = tested on: A549 NSCLC
IGROV1 ovarian = tested on: IGROV1 ovarian
SK-OV-3 ovarian = tested on: SK-OV-3 ovarian
U251 CNS = tested on: U251 CNS
MOLT-4 leukemia = tested on: MOLT-4 leukemia
RPMI-8226 leukemia = tested on: RPMI-8226 leukemia
M14 melanoma = tested on: M14 melanoma
CCRF-CEM leukemia = tested on: CCRF-CEM leukemia
PC-3 prostate = tested on: PC-3 prostate
HT29 colon = tested on: HT29 colon
HCT-15 colon = tested on: HCT-15 colon
OVCAR-4 ovarian = tested on: OVCAR-4 ovarian
SN12C renal = tested on: SN12C renal
NCI-H226 lung = tested on: NCI-H226 lung
TK-10 renal = tested on: TK-10 renal
ACHN renal = tested on: ACHN renal
KM12 colon = tested on: KM12 colon
HS 578T breast = tested on: HS 578T breast
LOX IMVI melanoma = tested on: LOX IMVI melanoma
SF-295 CNS = tested on: SF-295 CNS
SK-MEL-5 melanoma = tested on: SK-MEL-5 melanoma
HOP-62 NSCLC = tested on: HOP-62 NSCLC
MDA-MB-435 = tested on: MDA-MB-435
BT-549 breast = tested on: BT-549 breast
UACC-257 melanoma = tested on: UACC-257 melanoma
K-562 leukemia = tested on: K-562 leukemia
OVCAR-8 ovarian = tested on: OVCAR-8 ovarian
RXF 393 renal = tested on: RXF 393 renal
SF-539 CNS = tested on: SF-539 CNS
EKVX NSCLC = tested on: EKVX NSCLC
NCI-H460 lung = tested on: NCI-H460 lung
OVCAR-3 ovarian = tested on: OVCAR-3 ovarian
CAKI-1 renal = tested on: CAKI-1 renal
COLO 205 colon = tested on: COLO 205 colon
OVCAR-5 ovarian = tested on: OVCAR-5 ovarian
MDA-MB-231 breast = tested on: MDA-MB-231 breast
SF-268 CNS = tested on: SF-268 CNS
UACC-62 melanoma = tested on: UACC-62 melanoma
SK-MEL-2 melanoma = tested on: SK-MEL-2 melanoma
786-0 renal = tested on: 786-0 renal
UO-31 renal = tested on: UO-31 renal
MALME-3M melanoma = tested on: MALME-3M melanoma
SNB-19 CNS = tested on: SNB-19 CNS
DU-145 prostate = tested on: DU-145 prostate
NCI-H23 lung = tested on: NCI-H23 lung
MDA-MB-468 breast = tested on: MDA-MB-468 breast
HCT-116 colon = tested on: HCT-116 colon
HL-60(TB) leukemia = tested on: HL-60(TB) leukemia
NCI-H522 lung = tested on: NCI-H522 lung
SW-620 colon = tested on: SW-620 colon

COc1ccc(C(=O)/C=C/c2cccnc2)cc1S(N)(=O)=O
GI50 (MCF7 breast): 4.87 µM | TGI (MCF7 breast): 18.5 µM | GI50 (HCC-2998 colon): 13.9 µM | TGI (HCC-2998 colon): 26.1 µM | GI50 (SR leukemia): 1.83 µM | TGI (SR leukemia): 6.68 µM | GI50 (T-47D breast): 8.86 µM | TGI (T-47D breast): 25.6 µM | GI50 (SK-MEL-28 melanoma): 14.9 µM | TGI (SK-MEL-28 melanoma): 27.5 µM | GI50 (A498 renal): 21.7 µM | TGI (A498 renal): 53.6 µM | GI50 (NCI/ADR-RES ovarian): 23.4 µM | TGI (NCI/ADR-RES ovarian): 90.2 µM | GI50 (A549 NSCLC): 13.8 µM | TGI (A549 NSCLC): 33.9 µM | GI50 (IGROV1 ovarian): 12.4 µM | TGI (IGROV1 ovarian): 24.7 µM | GI50 (SK-OV-3 ovarian): 16.7 µM | TGI (SK-OV-3 ovarian): 31.1 µM | GI50 (U251 CNS): 7.44 µM | TGI (U251 CNS): 26.7 µM | GI50 (MOLT-4 leukemia): 3.5 µM | TGI (MOLT-4 leukemia): 15.1 µM | GI50 (RPMI-8226 leukemia): 9.08 µM | TGI (RPMI-8226 leukemia): 28.2 µM | GI50 (M14 melanoma): 14.3 µM | TGI (M14 melanoma): 29 µM | GI50 (CCRF-CEM leukemia): 12.6 µM | TGI (CCRF-CEM leukemia): 33.2 µM | GI50 (PC-3 prostate): 16.5 µM | TGI (PC-3 prostate): 33.2 µM | GI50 (HT29 colon): 5.49 µM | TGI (HT29 colon): 21.2 µM | GI50 (HCT-15 colon): 4.18 µM | TGI (HCT-15 colon): 16.7 µM | GI50 (OVCAR-4 ovarian): 16.3 µM | TGI (OVCAR-4 ovarian): 36 µM | GI50 (SN12C renal): 7.37 µM | TGI (SN12C renal): 18.8 µM | GI50 (NCI-H226 lung): 14.4 µM | TGI (NCI-H226 lung): 32.3 µM | GI50 (TK-10 renal): 13.9 µM | TGI (TK-10 renal): 26.6 µM | GI50 (ACHN renal): 13.5 µM | TGI (ACHN renal): 25.5 µM | GI50 (KM12 colon): 3.8 µM | TGI (KM12 colon): 14.4 µM | GI50 (HS 578T breast): 21.1 µM | TGI (HS 578T breast): 65.6 µM | GI50 (LOX IMVI melanoma): 4.63 µM | TGI (LOX IMVI melanoma): 16.1 µM | GI50 (SF-295 CNS): 12.8 µM | TGI (SF-295 CNS): 25.2 µM | GI50 (SK-MEL-5 melanoma): 14.8 µM | TGI (SK-MEL-5 melanoma): 27.3 µM | GI50 (HOP-62 NSCLC): 15.6 µM | TGI (HOP-62 NSCLC): 33 µM | GI50 (MDA-MB-435): 14.4 µM | TGI (MDA-MB-435): 31.1 µM | GI50 (BT-549 breast): 12.9 µM | TGI (BT-549 breast): 25.4 µM | GI50 (UACC-257 melanoma): 15.7 µM | TGI (UACC-257 melanoma): 32.2 µM | GI50 (K-562 leukemia): 2.92 µM | TGI (K-562 leukemia): 20.5 µM | GI50 (OVCAR-8 ovarian): 15.1 µM | TGI (OVCAR-8 ovarian): 35.6 µM | GI50 (RXF 393 renal): 12.3 µM | TGI (RXF 393 renal): 24.7 µM | GI50 (SF-539 CNS): 4.32 µM | TGI (SF-539 CNS): 15.7 µM | GI50 (EKVX NSCLC): 11.9 µM | TGI (EKVX NSCLC): 24.2 µM | GI50 (NCI-H460 lung): 9.17 µM | TGI (NCI-H460 lung): 44.9 µM | GI50 (OVCAR-3 ovarian): 10.3 µM | TGI (OVCAR-3 ovarian): 21.6 µM | GI50 (CAKI-1 renal): 12.7 µM | TGI (CAKI-1 renal): 24.9 µM | GI50 (COLO 205 colon): 13.7 µM | TGI (COLO 205 colon): 29.8 µM | GI50 (OVCAR-5 ovarian): 11.9 µM | TGI (OVCAR-5 ovarian): 23.5 µM | GI50 (MDA-MB-231 breast): 13.4 µM | TGI (MDA-MB-231 breast): 25.5 µM | GI50 (SF-268 CNS): 13.6 µM | TGI (SF-268 CNS): 31.6 µM | GI50 (UACC-62 melanoma): 12.8 µM | TGI (UACC-62 melanoma): 24.7 µM | GI50 (SK-MEL-2 melanoma): 19.4 µM | TGI (SK-MEL-2 melanoma): 49.7 µM | GI50 (786-0 renal): 11.2 µM | TGI (786-0 renal): 24.1 µM | GI50 (UO-31 renal): 6.05 µM | TGI (UO-31 renal): 18.5 µM | GI50 (MALME-3M melanoma): 14.2 µM | TGI (MALME-3M melanoma): 27.1 µM | GI50 (SNB-19 CNS): 13.4 µM | TGI (SNB-19 CNS): 25.4 µM | GI50 (DU-145 prostate): 11.2 µM | TGI (DU-145 prostate): 22.6 µM | GI50 (NCI-H23 lung): 12 µM | TGI (NCI-H23 lung): 24.1 µM | GI50 (MDA-MB-468 breast): 7.1 µM | TGI (MDA-MB-468 breast): 20.1 µM | GI50 (HCT-116 colon): 3.18 µM | TGI (HCT-116 colon): 11.7 µM | GI50 (HL-60(TB) leukemia): 11 µM | TGI (HL-60(TB) leukemia): 32.7 µM | GI50 (NCI-H522 lung): 10.5 µM | TGI (NCI-H522 lung): 24.1 µM | GI50 (SW-620 colon): 6.38 µM | TGI (SW-620 colon): 29.5 µM
